Measured values as given in patent US20090023186A1, “USE OF VALPROIC ACID FOR ENHANCING PRODUCTION OF RECOMBINANT PROTEINS IN MAMMALIAN CELLS” (EXCELLGENE SA, priority 2007, published 2009).

What was measured:
HEK293E cells [1] = assay: Alternative transgene TNFR-Fc, batch titer by ELISA (Example 4); format: cell-based, Human; details: 3.8 mmol/l final VPA, day 5 after transfection
Procedure: 10 million suspension-adapted HEK293E cells were resuspended in 0.5 ml of Ex-Cell 293 HEK 293 serum-free medium with 4 mmol/l L-glutamine (Cat. No. 14571C-[…]; Lot No. 6A0093; SAFC Biosciences, Lenexa, Kans., USA, “Ex-Cell” medium; note: “Ex-Cell” medium-as used herein-refers to a medium comprising 4 mmol/l L-glutamine) in a 50-ml filter tube each (TPP AG, Trasadingen, Switzerland; Cat. No. 87050, Lot 20050174). In a separate set, 10 million suspension-adapted CHO DG44 cells were resuspended in 0.5 ml of ProCHO5 serum-free medium with 4 mmol/[…] hypoxanthine and 0.194 g/l thymidine (BioWhittaker (Lonza), Belgium; Cat. No. BE12-[…]; Lot No. 7MB0040; “ProCHO5” medium; note: “ProCHO5” medium-as used herein-refers to a medium comprising 4 mmol/[…] hypoxanthine and 0.194 g/l thymidine) in a 50-ml filter tube each (TPP AG, Trasadingen, Switzerland; Cat. No. 87050, Lot 20050174). […] In short, Goat Anti-Human IgG (Fc Fragment specific; Jackson ImmunoResearch Laboratories Inc., West Grove, Pa., USA; Code Number 109-006-098; Lot No. 72349) was used for coating the ELISA-plates, and with AP-conjugated goat anti-human gamma chain IgG (Biosource) the synthesized TNFR-Fc was detected. […] Absorption was measured at 405 nm against 490 nm using a microplate reader (SPECTRAmaxTM340; Molecular Devices, Palo Alto, Calif., USA).

HEK293E cells [2] = assay: Preferred embodiment: transient IgG expression with p18 and p21 co-transfection, batch titer by ELISA; format: cell-based, Human; details: day 14 after transfection
Procedure: 20 million suspension-adapted HEK293E cells were resuspended in 1 ml of Ex-Cell 293 HEK 293 serum-free medium with 4 mmol/l L-glutamine (Cat. No. 14571C-[…]; Lot No. 6A0093; SAFC Biosciences, Lenexa, Kans., USA, “Ex-Cell” medium; note: “Ex-Cell” medium-as used herein-refers to a medium comprising 4 mmol/l L-glutamine) in a 50-ml filter tube each (TPP AG, Trasadingen, Switzerland; Cat. No. 87050, Lot 20050174). Then 50 μg plasmid DNA at a concentration of 1 μg/μl was added in each tube with the following composition […] Plasmid p-LC comprises the genetic information for the production of the light chain of an IgG antibody, plasmid p-HC comprises the genetic information for the production of the heavy chain of an IgG antibody, plasmid p-p18 comprises the genetic information for the protein p18, and plasmid p-p21 comprises the genetic information for the protein p21. The particular vector constructs used in the present invention can also be obtained from the inventors. The inventors can be contacted via e-mail at […]. Moreover, commercial services do exist that produce any desired nucleotide sequence even comprising several kilobase pairs including complete expression cassettes in plasmid backgrounds (e.g., Invitrogen, Carlsbad, USA; Geneart, Germany.) Thus, providing the genetic sequence information of the plasmids should enable one of ordinary skill in the art to order the plasmids of the present invention at one of the commercial services listed. After shortly mixing the DNA with the cells by gentle shaking, 100 μg of 25-kd linear polyethyleneimine (“PEI”; Polysciences, Eppelheim, Germany; [2]) were added at a concentration of 1 μg/μl to each of the tubes. After shortly mixing by gentle shaking, the filter tubes containing the cells together with the DNA and PEI were transferred into an orbital shaker (Kühner Shaker Cabinet ISF-4-W, “Kühner shaker”, Kühner AG, Birsfelden, Switzerland), and the cells were incubated for 3 hours at 37° C. in a 5% CO2 atmosphere under shaking at 180 rpm. After that time, 4 ml of Ex-Cell medium were added to each of the filter tubes. […] No. B5887-1G; Sigma-Aldrich Chemie GmbH, Industriestrasse 25, CH-9471 Buchs SG) was added to the corresponding tubes at the corresponding final concentrations. […] The ELISA was performed as published in prior art. In short, Goat anti-human kappa light chain IgG (Biosource) was used for coating the ELISA-plates, and with AP-conjugated goat anti-human gamma chain IgG (Biosource) the synthesized IgG1 was detected. NPP was used as a substrate for the alkaline phosphatase. Absorption was measured at 405 nm against 490 nm using a microplate reader (SPECTRAmaxTM340; Molecular Devices, Palo Alto, Calif., USA).

CCCC(CCC)C(=O)O [VPA, valproic acid]
Batch titer (HEK293E cells [1]): 159.5 ± 12.0 mg/L | Fold increase over control (HEK293E cells [1]): 4.5 fold | Batch titer (HEK293E cells [2]; 3.8 mmol/l VPA, IgG with p18 and p21): 962 ± 73 mg/L | Fold increase over control (HEK293E cells [2]; 3.8 mmol/l VPA): 13.2 fold | batch titers compared to adding sodium butyrate (HEK293E cells [2]): higher
